Where “and” joins values, the source holds several entries; their conditions need not be identical. Equal values may be shown once.
System: Swiss mice, Sarcoma 180 sc, mean tumor weight T/C
Assay: NCI In Vivo Anticancer Drug Screen. Data for tumor model Sarcoma 180 (subcutaneous) in Swiss mice
Conditions: endpoint: mean tumor weight, higher = larger tumour
In short: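 Antitumor activity is assessed in mice with transplantable tumors. Treated (T) and vehicle control (C) groups are compared on survival or tumor size.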

CCCCCCCCCCC(O)CN1CCN(c2ccc(C)cc2)CC1 (centres undefined)
T/C (dose: 110.0 mg/kg/injection, schedule: Q01DX007 (ip), vehicle: olive oil, sesame oil, peanut oil): 63 % of control
T/C (dose: 168.0 mg/kg/injection, schedule: Q01DX007 (ip), vehicle: olive oil, sesame oil, peanut oil): 51 % of control
T/C (dose: 250.0 mg/kg/injection, schedule: Q01DX007 (ip), vehicle: olive oil, sesame oil, peanut oil): 77 % of control

NC1(C(=O)OCc2ccccc2)CCCC1
T/C (dose: 50.0 mg/kg/injection, schedule: Q01DX007 (ip), vehicle: carboxymethylcellulose (CMC)): 87 % of control
T/C (dose: 100.0 mg/kg/injection, schedule: Q01DX007 (ip), vehicle: carboxymethylcellulose (CMC)): 76 % of control
T/C (dose: 200.0 mg/kg/injection, schedule: Q01DX007 (ip), vehicle: carboxymethylcellulose (CMC)): 66 % of control
T/C (dose: 333.0 mg/kg/injection, schedule: Q01DX007 (ip), vehicle: carboxymethylcellulose (CMC)): 64 % of control
T/C (dose: 400.0 mg/kg/injection, schedule: Q01DX007 (ip), vehicle: carboxymethylcellulose (CMC)): 47 % of control
T/C (dose: 500.0 mg/kg/injection, schedule: Q01DX007 (ip), vehicle: carboxymethylcellulose (CMC)): 36 % of control
T/C (dose: 750.0 mg/kg/injection, schedule: Q01DX007 (ip), vehicle: carboxymethylcellulose (CMC)): 55 % of control
T/C (dose: 800.0 mg/kg/injection, schedule: Q01DX007 (ip), vehicle: carboxymethylcellulose (CMC)): 25 % of control

CO[C@H]1CC[C@@]2(C)C(=CC[C@H]3[C@@H]4C[C@H](O)C[C@@]4(C)CC[C@@H]32)C1
T/C (dose: 2.5 mg/kg/injection, schedule: Q01DX007 (sc), vehicle: steriod suspending solution): 105 % of control
T/C (dose: 5.0 mg/kg/injection, schedule: Q01DX007 (sc), vehicle: steriod suspending solution): 80 % of control

O=C(O)C(O)C(F)(F)F (centres undefined)
T/C (dose: 15.5 mg/kg/injection, schedule: Q#A X014 (ip), vehicle: saline): 111 % of control
T/C (dose: 62.5 mg/kg/injection, schedule: Q#A X014 (ip), vehicle: saline): 90 % of control
T/C (dose: 125.0 mg/kg/injection, schedule: Q#A X014 (ip), vehicle: saline): 123 % of control

Cc1cc(N=Nc2ccc(Sc3ccc(N=Nc4ccc(O)c(C(=O)O)c4)cc3)cc2)c(N)c(N=Nc2ccc(C(=O)O)cc2)c1N
T/C (dose: 6.25 mg/kg/injection, schedule: Q01DX007 (ip), vehicle: water): 114 % of control
T/C (dose: 12.5 mg/kg/injection, schedule: Q01DX007 (ip), vehicle: water): 106 % of control
T/C (dose: 25.0 mg/kg/injection, schedule: Q01DX007 (ip), vehicle: water): 83 % of control

CN(C)[C@@H]1C(=O)C(C(=O)NCNCCCC(=O)O)=C(O)[C@@]2(O)C(=O)C3=C(O)c4c(O)cccc4[C@@](C)(O)[C@H]3C[C@@H]12
T/C (dose: 111.0 mg/kg/injection, schedule: Q#A X014 (ip), vehicle: saline): 97 % of control and 112 % of control
T/C (dose: 166.5 mg/kg/injection, schedule: Q#A X014 (ip), vehicle: saline): 101 % of control and 105 % of control
T/C (dose: 250.0 mg/kg/injection, schedule: Q#A X014 (ip), vehicle: saline): 52 % of control

CCN(CC)P(=O)(N1CC1)N1CC1
T/C (dose: 1.0 mg/kg/injection, schedule: Q#A X014 (ip), vehicle: methylcellulose (MC)): 64 % of control
T/C (dose: 1.0 mg/kg/injection, schedule: Q#A X014 (ip), vehicle: saline): 90 % of control and 92 % of control
T/C (dose: 1.5 mg/kg/injection, schedule: Q#A X014 (ip), vehicle: methylcellulose (MC)): 60 % of control
T/C (dose: 2.0 mg/kg/injection, schedule: Q#A X014 (ip), vehicle: methylcellulose (MC)): 82 % of control
T/C (dose: 3.0 mg/kg/injection, schedule: Q#A X014 (ip), vehicle: saline): 19 % of control and 38 % of control
T/C (dose: 4.0 mg/kg/injection, schedule: Q01DX007 (ip), vehicle: saline): 48 % of control

CC(=O)Nc1cc2c(cc1Cl)C(=O)c1cc(Cl)ccc1-2
T/C (dose: 55.0 mg/kg/injection, schedule: Q01DX007 (ip), vehicle: carboxymethylcellulose (CMC)): 75 % of control
T/C (dose: 83.0 mg/kg/injection, schedule: Q01DX007 (ip), vehicle: carboxymethylcellulose (CMC)): 53 % of control
T/C (dose: 125.0 mg/kg/injection, schedule: Q01DX007 (ip), vehicle: carboxymethylcellulose (CMC)): 39 % of control
T/C (dose: 187.5 mg/kg/injection, schedule: Q01DX007 (ip), vehicle: carboxymethylcellulose (CMC)): 26 % of control

CC(=O)OCC(=O)[C@@]1(O)CC[C@H]2[C@@H]3CCC4=CC(=O)CC[C@]4(C)[C@H]3[C@@H](O)C[C@@]21C
T/C (dose: 12.5 mg/kg/injection, schedule: Q#A X014 (ip), vehicle: steriod suspending solution): 70 % of control
T/C (dose: 25.0 mg/kg/injection, schedule: Q#A X014 (ip), vehicle: steriod suspending solution): 88 % of control
T/C (dose: 50.0 mg/kg/injection, schedule: Q#A X014 (ip), vehicle: steriod suspending solution): 57 % of control

Nc1nc(SCc2ccccn2)c2ncn(C3OC(CO)C(O)C3O)c2n1 (centres undefined)
T/C (dose: 11.1 mg/kg/injection, schedule: Q#A X014 (ip), vehicle: methylcellulose (MC)): 52 % of control
T/C (dose: 16.65 mg/kg/injection, schedule: Q#A X014 (ip), vehicle: methylcellulose (MC)): 48 % of control
T/C (dose: 25.0 mg/kg/injection, schedule: Q#A X014 (ip), vehicle: methylcellulose (MC)): 37 % of control
T/C (dose: 37.5 mg/kg/injection, schedule: Q#A X014 (ip), vehicle: methylcellulose (MC)): 41 % of control

Source: PubChem BioAssay AID342 (DTP/NCI, 2004)
